Laboratory results from paper PMC11791314 (The Journal of Biological Chemistry, 2024).

Legend:
[1] = biological target: T1, α1-tubulin (ChET) (Gallus gallus, UniProt P02552); experiment: cryo-EM structure ([…] Å); assay type: binding
T1 construct: gene TUBA1A; native α1/β1-tubulin from chicken erythrocytes, Cp-52 C8 ring; with β1-tubulin (TUBB1, P09207)

[2] = biological target: T2, blood cell-specific α1/β1-tubulin (ChET), β1-tubulin (Gallus gallus, UniProt P02552+P09207); experiment: ([…] Å, C8 ring); mass photometry Kd-app; assay type: binding
T2 construct: gene TUBA1A; native α1/β1-tubulin purified from the marginal band of chicken erythrocytes; with α1-tubulin (TUBA1A, P02552)
T2 sequence (P02552 whole entry): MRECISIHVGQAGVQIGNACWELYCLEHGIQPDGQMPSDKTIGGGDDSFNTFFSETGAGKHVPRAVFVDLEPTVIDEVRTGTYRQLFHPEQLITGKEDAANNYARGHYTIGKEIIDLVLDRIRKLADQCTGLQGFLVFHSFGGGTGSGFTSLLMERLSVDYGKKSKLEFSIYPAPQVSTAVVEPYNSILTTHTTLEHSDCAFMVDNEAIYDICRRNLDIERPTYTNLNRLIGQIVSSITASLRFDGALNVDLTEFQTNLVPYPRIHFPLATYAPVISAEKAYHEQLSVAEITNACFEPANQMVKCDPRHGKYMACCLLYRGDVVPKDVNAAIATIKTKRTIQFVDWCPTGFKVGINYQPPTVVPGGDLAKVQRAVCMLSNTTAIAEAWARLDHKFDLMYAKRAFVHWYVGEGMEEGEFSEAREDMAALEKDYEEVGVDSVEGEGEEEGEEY
T2 sequence (P09207 whole entry): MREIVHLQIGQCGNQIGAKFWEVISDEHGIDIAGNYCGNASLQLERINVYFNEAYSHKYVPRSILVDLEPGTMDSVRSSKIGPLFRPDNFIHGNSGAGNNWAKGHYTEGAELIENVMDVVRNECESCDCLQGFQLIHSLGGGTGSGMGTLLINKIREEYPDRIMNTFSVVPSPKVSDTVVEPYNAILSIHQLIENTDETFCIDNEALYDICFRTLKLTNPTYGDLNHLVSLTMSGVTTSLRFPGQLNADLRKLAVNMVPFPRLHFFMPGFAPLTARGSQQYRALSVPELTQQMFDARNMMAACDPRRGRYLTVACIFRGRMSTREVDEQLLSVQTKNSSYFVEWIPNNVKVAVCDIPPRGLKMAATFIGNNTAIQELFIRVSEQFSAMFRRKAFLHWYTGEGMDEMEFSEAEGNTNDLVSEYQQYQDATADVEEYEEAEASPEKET

[3] = tested on: T3, HeLa cell line tubulin (HeLaT), αβ-tubulin heterodimer; experiment: mass photometry of ring assembly (Kd-app); assay type: binding
T3 construct: native αβ-tubulin purified from cultured HeLa cells (isotype mixture); with α1B-tubulin

[4] = biological target: T4, bovine brain tubulin (BBT), αβ-tubulin heterodimer; experiment: mass photometry of ring assembly (Kd-app); assay type: binding, Bos taurus
T4 construct: native bovine brain αβ-tubulin (isotype mixture, PurSolutions)

T1 sequence (P02552 whole entry): as the sequence (P02552 whole entry) above
T1 sequence (P09207 whole entry partner): as the sequence (P09207 whole entry) above

Nc1nc2c(ncn2[C@@H]2O[C@H](COP(=O)(O)OP(=O)(O)OP(=O)(O)O)[C@@H](O)[C@H]2O)c(=O)[nH]1 [GTP]
cryo-EM structure (3.2 Å) [1]: comprises one copy of α1-tubulin with its bound GTP

COc1ccc(C[C@H]2NC(=O)/C=C/C[C@@H]([C@H](C)[C@H]3O[C@@H]3c3ccccc3)OC(=O)[C@H](CC(C)C)OC(=O)C(C)(C)CNC2=O)cc1Cl [Cp-52, cryptophycin-52]
Kd [2]: 65 ± 17 nM | Kd [3]: 25 ± 7 nM | Kd [4]: 172 ± 36 nM
